Source: patent publication EP0723972A1, “Lactylamines and their pharmaceutical application” (STEPAN EUROPE, priority 1995, dated 1996)
“And” between values parts separate entries of the source, which are not always exact repeats. Equal values may be shown once. Read-outs that look alike come from different tables or passages of the source.

What was measured:
Format in all cases: cell-based
[1] = tested on: Aspergillus fumigatus; assay: Anti-Aspergillus fumigatus in vitro growth inhibition (glucose consumption); conditions: for IC50: Aspergillus fumigatus
Description: Différents composés B1 ont été testés du point de vue de leurs propriétés anti-Aspergillus fumigatus, dans un essai in vitro standardisé, complètement décrit dans la publication (7) dont le contenu est incorporé, par référence, à la présente description.
Dans cet essai, la croissance dudit champignon est indiquée par la consommation de glucose qui constitue la seule source de carbone métabolisable, et on mesure la concentration en composé testé nécessaire pour inhiber 50% (IC50), et 90% (IC90) de la croissance du champignon. Deux composés témoin sont utilisés, l'Itraconazole et l'Amphotéricine B, dont les propriétés anti-Aspergillus fumigatus sont connues et qui servent dans cet essai de référence.

[2] = tested on: VIH (souche BRU); assay: Anti-HIV in vitro test: syncytia formation in HIV-infected CEM cells; conditions: 96 h
Description: Les composés A (A1, A2) et B (B1, B2) sont testés du point de vue de leurs propriétés anti-VIH selon un protocole d'essai in vitro standardisé et complètement décrit dans les publications (5, 6), dont le contenu est incorporé par référence, à la présente description.
La multiplication du VIH (souche BRU) dans les cellules CEM est évaluée par le nombre de syncytia formés après 4 jours d'infection, résultant de l'interaction entre la glycoprotéine gp120 exprimée par les cellules (BRU) infectées par le VIH, et les lymphocytes T4 (CEM).
Les composés testés sont ajoutés après l'adsorption du virus dans le milieu de culture aux concentrations finales 10^-3M, 10^-4M, 10^-5M, 10^-6M et 10^-7M.
Les résultats sont exprimés par la concentration la plus faible de composés qui diminue la formation des syncytia d'au moins 50%. Cette concentration est appelée EC50. Elle doit être la plus basse possible.

[3] = tested on: CEM non infectées; assay: Toxicity on uninfected CEM cells, colorimetric formazan (MTT) reduction; conditions: lowest concentration inhibiting formazan formation by at least 50%, four days of incubation, macrophage CEM-SS
Description: On détermine aussi la toxicité des composés testés. L'effet toxique sur les CEM non infectées est apprécié par une réaction colorimétrique basée sur la capacité des cellules vivantes à réduire le bromure de 3-(4,5-diméthylthiazol-2-yl)-2,5-diphényltétrazolium en formazan après quatre jours d'incubation en présence de différentes concentrations des composés. Les résultats sont exprimés par la concentration la plus faible de composés qui provoque une inhibition d'au moins 50% de la formation de formazan. Cette concentration est appelée CI50.

[4] = anti-VIH sur macrophage CEM-SS, lowest concentration reducing syncytia formation by at least 50%, 4 days of infection, read-out: EC50

SMILES	IC50 ([1]; read-out: CI50)	EC50 [2, 4] [µM]	CI50 [3] [µM]	EC50 ([2]; CEM-SS) [µM]	IC50 ([1]; concentration inhibiting 50% of fungal growth, read-out: CI50 (the source's name))	activité anti-Aspergillus fumigatus ([1]; result in words, compared with the reference compound)
CCCCCCCCCCCCCC(=O)N(CCCCCCCCC)C[C@H](O)[C@@H](O)[C@H](O[C@@H]1O[C@H](CO)[C@H](O)[C@H](O)[C@H]1O)[C@H](O)CO [B1(9, 13)]	5 µg/mL and 7.4 µM	–	–	–	–	–
CCCCCCCCCNC[C@H](O)[C@@H](O)[C@H](O[C@@H]1O[C@H](CO)[C@H](O)[C@H](O)[C@H]1O)[C@H](O)CO [N-nonylaminodésoxy-1-lactitol]	> 100 µg/mL and > 220 µM	1	40	–	–	–
CCCCCCCCCCCCCCCCNC[C@H](O)[C@@H](O)[C@H](O[C@@H]1O[C@H](CO)[C@H](O)[C@H](O)[C@H]1O)[C@H](O)CO [N-hexadécylaminodésoxy-l-lactitol]	2.2 µg/mL and 3.8 µM	–	70	50	–	–
CCCCCCCCCCCCNC[C@H](O)[C@@H](O)[C@H](O[C@@H]1O[C@H](CO)[C@H](O)[C@H](O)[C@H]1O)[C@H](O)CO [N-dodécylaminodésoxyl-1-lactitol]	> 100 µg/mL and 195 µM	–	7000	1000	–	–
C[C@@H]1[C@H](O)[C@@H](C)/C=C/C=C/C=C/C=C/C=C/C=C/C=C/[C@H](O[C@@H]2O[C@H](C)[C@@H](O)[C@H](N)[C@@H]2O)C[C@@H]2O[C@](O)(C[C@@H](O)C[C@@H](O)[C@H](O)CC[C@@H](O)C[C@@H](O)CC(=O)O[C@H]1C)C[C@H](O)[C@H]2C(=O)O [Amphotéricine B, reference compound]	0.02 µg/mL and 20 nM	–	–	–	–	–
CCCCCCCCCCCCCCCC(=O)N(CCCCCCCCC)C[C@H](O)[C@@H](O)[C@H](O[C@@H]1O[C@H](CO)[C@H](O)[C@H](O)[C@H]1O)[C@H](O)CO [B1(9, 15)]	1.6 µg/mL and 2.3 µM	10	> 100	–	–	–
CCCCCCCCCCCCCCNC[C@H](O)[C@@H](O)[C@H](O[C@@H]1O[C@H](CO)[C@H](O)[C@H](O)[C@H]1O)[C@H](O)CO [N-tétradécylaminodésoxy-l-lactitol]	15.2 µg/mL and 28.1 µM	–	70	50	–	–
CCC(C)n1ncn(-c2ccc(N3CCN(c4ccc(OCC5COC(Cn6cncn6)(c6ccc(Cl)cc6Cl)O5)cc4)CC3)cc2)c1=O (centres unmarked) [Itraconazole, reference compound]	–	–	–	–	0.003 µg/mL and 4 nM	–
CCCCCCCCCCCCCCCCCC(=O)N(CCCCCCCCC)C[C@H](O)[C@@H](O)[C@H](O[C@@H]1O[C@H](CO)[C@H](O)[C@H](O)[C@H]1O)[C@H](O)CO [B1(9, 17)]	0.5 µg/mL and 600 nM	–	–	–	–	proche de celle de l'Amphotéricine B
